Measurements from article PMC8161026, “Synthesis and Anticancer Activity Evaluation of 5-[2-Chloro-3-(4-nitrophenyl)-2-propenylidene]-4-thiazolidinones” (Molecules, 2021).

Legend:
[1] = system: SNB-19; assay: NCI DTP 60 cell line screen, SRB; conditions: for GI50 / CC50: Homo sapiens, SNB-19, 48 h; for CC50: read-out: LC50; for TGI: SNB-19 (CNS Cancer), 48 h, SRB
[2] = system: RPMI-8226; conditions: for TI (Therapeutic Index): GI50 (normal blood lymphocyte)/GI50 (RPMI-8226); for TGI: RPMI-8226 (Leukemia), 48 h, SRB
[3] = system: OVCAR-8; assay: NCI DTP 60 cell line screen, SRB; conditions: for GI50 / CC50: Homo sapiens, OVCAR-8, 48 h; for CC50: read-out: LC50; for TGI: OVCAR-8 (Ovarian Cancer), 48 h, SRB
[4] = system: HCT-116; conditions: HCT-116 (Colon Cancer), 48 h, SRB
[5] = system: RPMI-8226; assay: cells; conditions: Homo sapiens, RPMI-8226, 48 h; for CC50: read-out: LC50
[6] = system: NCI-H460; conditions: NCI-H460 (Non-Small Cell Lung Cancer), 48 h, SRB
[7] = system: K-562; assay: cells; conditions: Homo sapiens, K562, 48 h; for CC50: read-out: LC50
[8] = system: Breast Cancer subpanel; assay: cells; conditions: for MG_MID, TGI: Breast Cancer panel mean; for GI50 / CC50: Homo sapiens; for GI50: read-out: MG_MID, GI50; for CC50: read-out: MG_MID, LC50; for SI (selectivity index), GI50 / SI (selectivity index), LC50 / SI (selectivity index), TGI: full panel MG_MID / Breast Cancer subpanel MG_MID
Method: (§1) At the first stage of biological activity study, the antitumor activity screening of the selected compounds 2b, 2c, 2f, 2h, and 2j was performed according to the NCI DTP (USA) standard protocol at the concentrations ranging from 10^−4 to 10^−8 M toward 60 tumor cell lines. The percentage of growth was evaluated spectrophotometrically versus controls not treated with test agents after 48 h exposure and using SRB protein assay to estimate cell viability or growth. Dose–response parameters were calculated for each cell line: GI50—molar concentration of the compound that inhibits 50% net cell growth; TGI—molar concentration of the compound leading to the total inhibition; and LC50—molar concentration of the compound leading to 50% net cell death. Furthermore, mean graph midpoints (MG_MID) were calculated for each of the parameters, giving an average activity parameter over all cell lines for the tested compound. For the MG_MID calculation, insensitive cell lines were included with the highest concentration tested.
(§2) The selectivity index (SI) obtained by dividing the full panel MG-MID (mM) of the tested compound by their individual subpanel MG-MID (mM) was considered as a measure of selectivity of anticancer activity (Table 3).
(§3) Primary anticancer assay was performed on a panel of approximately sixty human tumor cell lines derived from nine neoplastic diseases, in accordance with the protocol of the Drug Evaluation Branch, National Cancer Institute, Bethesda. Tested compounds were added to the culture at a single concentration (10^−5 M) and the cultures were incubated for 48 h. End point determinations were made with a protein binding dye, sulforhodamine B (SRB). […] The percentage growth was evaluated spectrophotometrically versus controls not treated with test agents.
(§4) Dose–response parameters (GI50, TGI, LC50) were calculated for each compound. […] The drug concentration resulting in total growth inhibition (TGI) was calculated from Ti = Tz. The LC50 (concentration of drug resulting in a 50% reduction in the measured protein at the end of the drug treatment as compared to that at the beginning) indicating a net loss of cells following treatment was calculated from [(Ti − Tz)/Tz] × 100 = −50 (2). Values were calculated for each of these parameters if the level of activity was reached; however, if the effect was not reached or was excessive, the value for that parameter was expressed as more or less than the maximum or minimum concentration tested.

[9] = system: Leukemia subpanel; assay: cells; conditions: for TI (Therapeutic Index): GI50 (normal blood lymphocyte)/GI50 (Leukemia Panel); for GI50 / CC50: Homo sapiens; for GI50: read-out: MG_MID, GI50; for CC50: read-out: MG_MID, LC50; for MG_MID, TGI: Leukemia panel mean; for SI (selectivity index), GI50 / SI (selectivity index), LC50 / SI (selectivity index), TGI: full panel MG_MID / Leukemia subpanel MG_MID
Method: as §1, §2, §3, §4

[10] = system: Colon Cancer subpanel; assay: cells; conditions: for MG_MID, TGI: Colon Cancer panel mean; for GI50 / CC50: Homo sapiens; for GI50: read-out: MG_MID, GI50; for CC50: read-out: MG_MID, LC50; for SI (selectivity index), GI50 / SI (selectivity index), LC50 / SI (selectivity index), TGI: full panel MG_MID / Colon Cancer subpanel MG_MID
Method: as §1, §2, §3, §4

[11] = system: Prostate Cancer subpanel; assay: cells; conditions: for GI50 / CC50: Homo sapiens; for GI50: read-out: MG_MID, GI50; for CC50: read-out: MG_MID, LC50; for SI (selectivity index), GI50 / SI (selectivity index), LC50 / SI (selectivity index), TGI: full panel MG_MID / Prostate Cancer subpanel MG_MID
Method: as §1, §2, §3, §4

[12] = system: Non-Small Cell Lung Cancer subpanel; assay: cells; conditions: for GI50 / CC50: Homo sapiens; for GI50: read-out: MG_MID, GI50; for CC50: read-out: MG_MID, LC50; for MG_MID, TGI: Non-Small Cell Lung Cancer panel mean; for SI (selectivity index), GI50 / SI (selectivity index), LC50 / SI (selectivity index), TGI: full panel MG_MID / Non-Small Cell Lung Cancer subpanel MG_MID
Method: as §1, §2, §3, §4

[13] = system: Renal Cancer subpanel; assay: cells; conditions: for GI50 / CC50: Homo sapiens; for GI50: read-out: MG_MID, GI50; for CC50: read-out: MG_MID, LC50; for MG_MID, TGI: Renal Cancer panel mean; for SI (selectivity index), GI50 / SI (selectivity index), LC50 / SI (selectivity index), TGI: full panel MG_MID / Renal Cancer subpanel MG_MID
Method: as §1, §2, §3, §4

[14] = system: Ovarian Cancer subpanel; assay: cells; conditions: for GI50 / CC50: Homo sapiens; for GI50: read-out: MG_MID, GI50; for CC50: read-out: MG_MID, LC50; for MG_MID, TGI: Ovarian Cancer panel mean; for SI (selectivity index), GI50 / SI (selectivity index), LC50 / SI (selectivity index), TGI: full panel MG_MID / Ovarian Cancer subpanel MG_MID
Method: as §1, §2, §3, §4

[15] = system: HCT-15; assay: NCI DTP 60 cell line screen, SRB; conditions: for TGI: HCT-15 (Colon Cancer), 48 h, SRB; for GI50 / CC50: Homo sapiens, HCT-15, 48 h; for CC50: read-out: LC50
[16] = system: A498; assay: NCI DTP 60 cell line screen, SRB
[17] = system: TK-10; assay: NCI DTP 60 cell line screen, SRB; conditions: for GI50 / CC50: Homo sapiens, TK-10, 48 h; for CC50: read-out: LC50; for TGI: TK-10 (Renal Cancer), 48 h, SRB
[18] = system: EKVX; conditions: EKVX (Non-Small Cell Lung Cancer), 48 h, SRB
[19] = system: MDA-MB-435; assay: NCI DTP 60 cell line screen, SRB

O=C(O)C(Cc1ccccc1)N1C(=O)/C(=C/C(Cl)=C/c2ccc([N+](=O)[O-])cc2)SC1=S (stereo not shown) [Compound 2j, 2-{5-[(Z,2Z)-2-Chloro-3-(4-nitrophenyl)-2-propenylidene]-4-oxo-2-thioxothiazolidin-3-yl}-3-phenylpropanoic acid]
GI50 [1]: 1.85 µM
CC50 [1]: > 100 µM
TGI [1]: > 100 µM
TI (Therapeutic Index) [2]: 15.21
TGI [2]: > 100 µM
GI50 [3]: 3.13 µM
CC50 [3]: > 100 µM
TGI [3]: > 100 µM
TGI [4]: 5.47 µM
GI50 [5]: 3.22 µM
CC50 [5]: > 100 µM
TGI [6]: > 100 µM
GI50 [7]: 3.01 µM
CC50 [7]: > 100 µM
MG_MID, TGI [8]: 37.0 µM
GI50 [8]: 24.6 µM
CC50 [8]: 84.6 µM
SI (selectivity index), GI50 [8]: 0.17
SI (selectivity index), LC50 [8]: 0.87
SI (selectivity index), TGI [8]: 1.10
TI (Therapeutic Index) [9]: 16.60
GI50 [9]: 2.95 µM
CC50 [9]: > 100 µM
MG_MID, TGI [9]: >100 µM
SI (selectivity index), GI50 [9]: 1.39
SI (selectivity index), LC50 [9]: <0.74
SI (selectivity index), TGI [9]: <0.41
MG_MID, TGI [10]: 18.7 µM
GI50 [10]: 2.19 µM
CC50 [10]: 67.4 µM
SI (selectivity index), GI50 [10]: 1.87
SI (selectivity index), LC50 [10]: 1.10
SI (selectivity index), TGI [10]: 2.17
GI50 [11]: 2.3 µM
CC50 [11]: 55.9 µM
MG_MID, TGI ([11]; Prostate Cancer panel mean): 6.27 µM
SI (selectivity index), GI50 [11]: 1.78
SI (selectivity index), LC50 [11]: 1.32
SI (selectivity index), TGI [11]: 6.48
GI50 [12]: 13.1 µM
CC50 [12]: 92.9 µM
MG_MID, TGI [12]: 36.9 µM
SI (selectivity index), GI50 [12]: 0.31
SI (selectivity index), LC50 [12]: 0.80
SI (selectivity index), TGI [12]: 1.10
GI50 [13]: 2.03 µM
CC50 [13]: 42.6 µM
MG_MID, TGI [13]: 27.8 µM
SI (selectivity index), GI50 [13]: 2.01
SI (selectivity index), LC50 [13]: 1.73
SI (selectivity index), TGI [13]: 1.46
GI50 [14]: 3 µM
CC50 [14]: 84.5 µM
MG_MID, TGI [14]: 68.6 µM
SI (selectivity index), GI50 [14]: 1.36
SI (selectivity index), LC50 [14]: 0.87
SI (selectivity index), TGI [14]: 0.59
TGI [15]: 4.58 µM
GI50 [15]: 1.92 µM
CC50 [15]: > 100 µM
TGI ([16]; A498 (Renal Cancer), 48 h, SRB): 3.24 µM
GI50 ([16]; Homo sapiens, A498, 48 h): 1.65 µM
CC50 ([16]; Homo sapiens, A498, 48 h, read-out: LC50): 6.37 µM
GI50 [17]: 2.43 µM
CC50 [17]: > 100 µM
TGI [17]: > 100 µM
TGI [18]: 7.29 µM

O=C1/C(=C/C(Cl)=C/c2ccc([N+](=O)[O-])cc2)SC(=S)N1c1ccc(O)cc1 [Compound 2f, 5-[(Z,2Z)-2-Chloro-3-(4-nitrophenyl)-2-propenylidene]-3-(4-hydroxyphenyl)-2-thioxo-4-thiazolidinone]
GI50 [1]: 10 µM
CC50 [1]: 97.5 µM
TGI [1]: 32.0 µM
TI (Therapeutic Index) [2]: >10,000
TGI [2]: 0.264 µM
GI50 ([19]; Homo sapiens, MDA-MB-435, 48 h): 3.5 µM
CC50 ([19]; Homo sapiens, MDA-MB-435, 48 h, read-out: LC50): > 100 µM
TGI ([19]; MDA-MB-435 (Breast Cancer), 48 h, SRB): 7.71 µM
GI50 [3]: 1.14 µM
CC50 [3]: > 100 µM
TGI [3]: 22.9 µM
TGI [4]: 2.96 µM
GI50 [5]: < 0.01 µM
CC50 [5]: > 100 µM
TGI [6]: > 100 µM
GI50 [7]: 0.521 µM
CC50 [7]: > 100 µM
MG_MID, TGI [8]: 11.6 µM
GI50 [8]: 1.89 µM
CC50 [8]: 98.7 µM
SI (selectivity index), GI50 [8]: 1.48
SI (selectivity index), LC50 [8]: 0.82
SI (selectivity index), TGI [8]: 2.78
TI (Therapeutic Index) [9]: >353.36
GI50 [9]: 0.283 µM
CC50 [9]: > 100 µM
MG_MID, TGI [9]: 41.0 µM
SI (selectivity index), GI50 [9]: 9.89
SI (selectivity index), LC50 [9]: <0.81
SI (selectivity index), TGI [9]: 0.78
MG_MID, TGI [10]: 67.4 µM
GI50 [10]: 1.84 µM
CC50 [10]: 84.5 µM
SI (selectivity index), GI50 [10]: 1.52
SI (selectivity index), LC50 [10]: 0.96
SI (selectivity index), TGI [10]: 0.48
GI50 [11]: 1.48 µM
CC50 [11]: 75.1 µM
SI (selectivity index), GI50 [11]: 1.89
SI (selectivity index), LC50 [11]: 1.08
SI (selectivity index), TGI [11]: 0.71
GI50 [12]: 2.93 µM
CC50 [12]: 74 µM
MG_MID, TGI [12]: 26.6 µM
SI (selectivity index), GI50 [12]: 0.96
SI (selectivity index), LC50 [12]: 1.09
SI (selectivity index), TGI [12]: 1.21
GI50 [13]: 2.85 µM
CC50 [13]: 69.1 µM
MG_MID, TGI [13]: 24.1 µM
SI (selectivity index), GI50 [13]: 0.98
SI (selectivity index), LC50 [13]: 1.17
SI (selectivity index), TGI [13]: 1.34
GI50 [14]: 3.32 µM
CC50 [14]: > 100 µM
MG_MID, TGI [14]: 42.5 µM
SI (selectivity index), GI50 [14]: 0.84
SI (selectivity index), LC50 [14]: <0.81
SI (selectivity index), TGI [14]: 0.76
TGI [15]: > 100 µM
GI50 [15]: 0.409 µM
CC50 [15]: > 100 µM
GI50 [17]: 4.87 µM
CC50 [17]: > 100 µM
TGI [17]: 29.0 µM
TGI [18]: 16.2 µM
